The source of these data is patent US8236937B2, “Methods and compositions for the detection and isolation of ligands” (InDanio Bioscience Inc., priority 2005, dated 2012).

In test [1] the target is T1, GAL4-DHR96 (Drosophila hormone receptor 96) fusion protein (Drosophila melanogaster, UniProt Q24143).
T1 construct: expressed in transfected cells; host or cells: transgenic Drosophila embryos carrying GAL4-DHR96 and a UAS-GFP reporter
T1 sequence (Q24143 483-723 limits assumed): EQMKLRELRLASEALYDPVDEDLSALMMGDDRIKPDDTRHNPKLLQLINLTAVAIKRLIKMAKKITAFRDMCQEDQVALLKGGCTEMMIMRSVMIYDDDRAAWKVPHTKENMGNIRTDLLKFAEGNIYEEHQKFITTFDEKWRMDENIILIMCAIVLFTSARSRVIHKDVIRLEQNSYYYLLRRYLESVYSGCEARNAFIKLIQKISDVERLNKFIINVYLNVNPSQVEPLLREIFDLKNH
Put plainly: Ligand trap GFP reporter screen in transgenic Drosophila embryos (GAL4-DHR96, UAS-GFP). As to conditions: 10^−5 molar vs control media, FIG. 7 panel A. The test is classed as in vivo.
Description: CITCO is a component of a small molecule library used to screen for novel DHR96 ligands.

The test system of test [2] is fish glucocorticoid receptor (GR). As to conditions: agonist; cited from earlier work.

For `Clc1ccc(-c2nc3sccn3c2/C=N/OCc2ccc(Cl)c(Cl)c2)cc1` [CITCO], the “GFP reporter activation / ligand activity at DHR96” value in test [1] is on record as “first example of a DHR96-specific ligand”. With `C[C@]12CCC(=O)C=C1CC[C@@H]1[C@@H]2[C@@H](O)C[C@@]2(C)[C@H]1CC[C@]2(O)C(=O)CO` [cortisol], the “Transcriptional activity of fish GR in the presence of ligand” value in test [2] was “able to induce transcriptional activity”.
